According to patent US20160166705A1, “THERAPEUTICAL USE OF TERNARY COMPLEXES OF VALPROIC ACID” (UNIVERSITE PARIS-SUD XI, priority 2009, published 2016):

Key:
leukocyte migration = experiment: Anti-inflammatory tail section assay, leukocyte migration in zebrafish; format: in vivo
Experimental: (§1) All chemicals were firstly dissolved in dimethylsulfoxide, DMSO 99.5% (GC) Sigma-Aldrich), and then diluted in embryo medium E3 (5 mM NaCl, 0.17 mM KCl, 0.33 mM CaCl2, 0.33 mM Mg2SO4, 10-5% methylene blue).
(§2) During the course of the experiments, transgenic zebrafish of the fli-1: EGFP lines were used. Once the fertilized eggs were collected, they were reared in embryo medium E3 in an incubator at 28° C. The 20 hours post fertilization (hpf), 1-phenyl-2-thiourea (PTU) (Sigma-10×(0.03%)) was added to larvae's medium in 1:9 proportion to prevent the formation of melanophores in zebrafish embryos and larvae [Karlsson, J., von Hofsten, J. and Olsson, P. Mar. Biotechnol., 2001, 3, 522-527].
The experimental corroboration of anti-inflammatory activity was done by using a new in vivo test development using zebrafish biological material [Siverio-Mota, D., de Witte, P. et al, 2009, in preparation]. The principal aspects of this new biological assay are the following. First, ten larvae from 4 dpf were used per treated and control groups. In each case, the MTC was used as the assay concentration and indomethacin (Merck Sharp & Dohme) at 30 μM was used as control group. These larvae were placed in wells of a 24 wells tissue culture plate at assay's concentrations in ImL final volume. After one hour, the larvae were anesthetized by immersion in E3 containing tricaine (Westerfield, M., The Zebrafish Book: A Guide for the Laboratory Use of Zebrafish (Brachydanio rerio). 1995, Eugene, Oreg., University of Oregon Press), the complete section of the tail was performed with a sterile scalpel. Once tails were cut, zebrafish were placed again in a 24 wells tissue culture plate at assay's concentrations together with 10 μg/mL solution of lipopolysaccharide to stimulate the leukocyte migration. The temperature of incubation was kept from 20 to 22° C. […]
Anti-inflammatory activity was evaluated following the steps described above. Leukocyte migration to damaged zone (end tail) was observed and evaluated as the parameter determining the anti-inflammatory activity of the tested compounds. […]

[1] = test system: Maximal Electroshock (MES) induced seizures; experiment: Maximal Electroshock Seizure (MES) test; format: in vivo; settings: mice ip 57, 188, or 570 µmg/kg; challenge 0.5 and 4 h after treatment
Experimental: Anticonvulsant activities were determined by the National Institutes of Health-National Institute of Neurological Disorders and Stroke-Antiepileptic Drug Development program for the detection and evaluation of compounds as anticonvulsants agents. Compounds were suspended in polyethylene glycol prior to injection into male Carworth Farms #1 mice. In Phase I studies, identification of anti-convulsant activity, test compounds were given intraperitonealy ([…]) of body mass, and protection against Maximal Electroshock (MES), Minimal Electroshock (MCS) and/or Metrazol (scMET) induced seizures was determined 30 min and 4 h later. All statistics were obtained by Probit analysis.
Maximal electroshock seizure (MES) were elicited with a 60 cycles alternating current of 50 mA, five to seven times that necessary to elicit minimal electroshock seizures, delivered for 0.2 s via corneal electrodes. A drop of 0.9% saline solution was instilled into both eyes prior to application of electrodes in order to prevent death. Abolition of the hind limb tonic extension component of seizure is defined as anticonvulsant activity.

[2] = Rotating rod test (Rotorod Toxicity), rats; format: in vivo; settings: rats oral 94 μmol/kg; challenge 0.25, 0.5, 1, 2, and 4 h
Description: (§3) This qualitative test was used to evaluate ‘neurotoxicity’, central nervous system stimulation or depression. Depression of CNS activity is a common feature of all antiepileptic drugs. Mice or rats are placed on a 1 inch diameter knurled plastic rod rotating at 6 revolutions per min. Normal mice and rats can remain on a rod rotating at this speed indefinitely. […] It may be attributed to CNS depression due to sedative and/or hypnotic activities, or a state of eminent death, due to medullary paralysis at high doses, a common unwanted side effect caused by high doses of all anticonvulsant drugs.

[3] = test system: Metrazol (scMET) induced seizures; experiment: Subcutaneous Metrazol seizure threshold test (scMET), mice; format: in vivo
Experimental: Anticonvulsant activities were determined by the National Institutes of Health-National Institute of Neurological Disorders and Stroke-Antiepileptic Drug Development program for the detection and evaluation of compounds as anticonvulsants agents. Compounds were suspended in polyethylene glycol prior to injection into male Carworth Farms #1 mice. […] All statistics were obtained by Probit analysis.
A dose of Pentylenetetrazol, a potent CNS stimulant, which produces seizures in greater than 97% of treated mice, at 85 mg/kg of body mass, was administered s.c. as a 0.5% saline solution at the posterior neck midline. […] Failure to observe even a threshold seizure, a single episode of clonic spasms of at least five second duration, is defined as anticonvulsant activity.

[4] = Rotating rod test (Rotorod Toxicity), mice; format: in vivo; settings: for Rotorod Toxicity: challenge 0.5 and 4 h
Description: as §3

Minimal Clonic Seizure = experiment: Minimal Electroshock / Psychomotor (Minimal Clonic) Seizure test (MCS); format: in vivo, mice; settings: for anticonvulsant activity against MCS, complex versus individual constituents: mouse, in vivo
Experimental: Anticonvulsant activities were determined by the National Institutes of Health-National Institute of Neurological Disorders and Stroke-Antiepileptic Drug Development program for the detection and evaluation of compounds as anticonvulsants agents. Compounds were suspended in polyethylene glycol prior to injection into male Carworth Farms #1 mice. In Phase I studies, identification of anti-convulsant activity, test compounds were given intraperitonealy (ip) at 57, 188 and 570 milligrams-per-kilogram (mg/kg) of body mass, and protection against Maximal Electroshock (MES), Minimal Electroshock (MCS) and/or Metrazol (scMET) induced seizures was determined 30 min and 4 h later. All statistics were obtained by Probit analysis.
This test was designed to detect compounds that are missed with the MES tests which employ a larger current of 50 mA. The delivery of a less intense electric stimulation which produces less intense stimulation of the CNS (Central Nervous System) and brain inflammation than the MES test, via corneal electrodes of 6 Hz, 32 mA or slightly higher current, for 3 s, is used to produce psychomotor seizures, following instillation of a drop of 0.9% saline solution prior to this application of electric current. Abolition of the visual stereotypic behavior characterized as minimal automatist behaviors, similar to the aura that human patients experience during psychomotor seizure, is defined as antipsychomotor seizure activity.

MET-induced seizures = experiment: Metrazol seizure test, oral treatment of rats; format: in vivo; settings: rats oral 94 μmol/kg
zebrafish larvae = experiment: Toxicological evaluation (Maximum Tolerated Concentration) in zebrafish larvae; format: in vivo; settings: 100 µM; 24 h exposure of larvae
Experimental: as §1, §2
The Maximum Tolerated Concentration (MTC) was defined as the maximum concentration at which no death or signs of toxicity (in the circulatory system) were observed.
The MTC in the fish water was initially determined by incubating zebrafish larvae resulting from 4 days post fertilization (dpf) with compounds assayed in E3. During 24 hours, 5 larvae of zebrafish per well were placed in a tissue culture in 24 well plates using tested compounds at 10 μM, 30 μM and 100 μM concentration in the medium. Following the 24 h period of incubation, the characteristics of the zebrafish larvae were examined. The MTC were determined in treated groups at 5 dpf after 24 h exposure to the tested drugs.

## CCCC(CCC)C(=O)[O-].CCCC(CCC)C(=O)[O-].CCCC(CCC)C(=O)[O-].CCCC(CCC)C(=O)[O-].[Cu+2].[Cu+2] [Compound 3, Tetrakis-μ-2-propylpentanoato dicopper(II)]
Leukocyte migration; zebrafish larvae, tail section + lipopolysaccharide, tested at MTC, 7 h
  percentage of relative leukocyte's migration: 60%

## CCCC(CCC)C(=O)[O-].CCCC(CCC)C(=O)[O-].[Cu+2].c1cnc2c(c1)ccc1cccnc12 [Compound 4, bis-(2-propylpentanoato)(1,10-phenanthroline)copper(II)]
[1]
  anticonvulsant activity, MES challenge: inactive
[2]
  Rotorod Toxicity: failed to evidence Rotorod Toxicity
[3]; 188 μmol/kg at 4 h challenge and 570 μmol/kg at 0.5 challenge time
  deaths in scMET test: deaths occurring without seizure
[3]; mice 5.7, 19, 57, 188, and 570 μmol/kg, challenge 0.5 and 4 h
  anticonvulsant activity, scMET seizure model: inactive
[4]; mice 188 μmol/kg, 4 h challenge time
  deaths in Rotorod test: three deaths
[4]; mice 188 μmol/kg, impaired ability to grasp the rotating rod
  Rotorod Toxicity: observed
[4]; mice 570 μmol/kg
  Rotorod Toxicity: impaired ability to grasp the rotating rod, sedation, and deaths without seizure
[4]; mice ip 5.7, 19, and 57 μmol/kg
  Rotorod Toxicity: not observed
Minimal Clonic Seizure; 18 μmol/kg
  TPE (Time to Peak Effect): 2 h
Minimal Clonic Seizure; 18 mol/kg, challenge times 1, 2, and 4 h
  activity against Minimal Clonic seizure: activity was found
Minimal Clonic Seizure; mice
  ED50, Minimal Clonic seizure: 8 µmol/kg
Minimal Clonic Seizure; mice 188 μmol/kg, 0.25, 0.5, 1, and 2 h
  toxicity observed in MCS test: inability to grasp the rotating rod
Minimal Clonic Seizure; mice 188 μmol/kg, 2 h challenge time
  deaths in MCS test: three deaths
Minimal Clonic Seizure; mice 188 μmol/kg, before the 4 h challenge
  deaths in MCS test: all mice died
Minimal Clonic Seizure; mice 188 μmol/kg, challenge 0.25, 0.5, 1, and 2 h
  activity against Minimal Clonic seizure: active
Minimal Clonic Seizure; mice 2.25, 4.5, 9, 18, and 36 μmol/kg, 2 h
  toxicity in MCS test: absence of toxicity
Minimal Clonic Seizure; mice 2.25, 4.5, 9, 18, and 36 μmol/kg, challenge at 2 h
  protection against the Minimal Clonic seizure: dose-related increase in protection
Minimal Clonic Seizure; mice ip 94 μmol/kg, after the 2 h challenge
  deaths in MCS test: two deaths
Minimal Clonic Seizure; mice ip 94 μmol/kg, challenge 0.25, 0.5, 1, and 2 h
  protection against Minimal Clonic Seizure: protected
Minimal Clonic Seizure; mice ip 94 μmol/kg, most mice
  toxicity observed in MCS test: Minimal motor impairment
Minimal Clonic Seizure; mice ip 94 μmol/kg, prior to challenge at 4 h
  deaths in MCS test: All treated mice died
Minimal Clonic Seizure
  anticonvulsant activity against MCS, complex versus individual constituents: μmolar level
MET-induced seizures
  adverse effects in MET test: continuous seizure activity, death following continuous seizure activity, or tonic seizure extension
MET-induced seizures; challenge 0.25, 0.5, 1, 2, and 4 h
  protection against MET-induced seizures: not protective

## CCCC(CCC)C(=O)[O-].CCCC(CCC)C(=O)[O-].[Mg+2] [Compound 7]
Zebrafish larvae
  toxicity in zebrafish: did not show any toxicity
Leukocyte migration; zebrafish
  anti-inflammatory result, ranking in words: best result

## [Cl][Cu][Cl] [copper chloride, reference compound]
Minimal Clonic Seizure
  anticonvulsant activity against MCS, complex versus individual constituents: no anticonvulsant of activity

## COc1ccc2c(c1)c(CC(=O)O)c(C)n2C(=O)c1ccc(Cl)cc1 [indomethacin, reference compound]
Leukocyte migration; positive control, indomethacin at 30 μM
  percentage of relative leukocyte's migration: 20%

## c1cnc2c(c1)ccc1cccnc12 [phenanthroline, 1,10-phenanthroline, reference compound]
Minimal Clonic Seizure
  anticonvulsant activity against MCS, complex versus individual constituents: no anticonvulsant of activity

## CCCC(CCC)C(=O)O [sodium valproate, reference compound]
Minimal Clonic Seizure; Mus musculus, same paradigm, sodium valproate
  ED50: 2800 µmol/kg

## CCCC(CCC)C(=O)O [valproic acid, 2-propylpentanoic acid]
Minimal Clonic Seizure
  anticonvulsant activity against MCS, complex versus individual constituents: much less potency

## copper acetate [reference compound]
Minimal Clonic Seizure
  anticonvulsant activity against MCS, complex versus individual constituents: no anticonvulsant of activity
